Assay [1] can be described thus: Inhibition of binding to N-terminal p85 SH2 domain.
Assay [2] concerns the target T1, Growth factor receptor-bound protein 2 (Homo sapiens, UniProt P62993). Kind of assay: Inhibition of binding to Grb2 SH2 domain.
Assay [3] has as its target T1, Growth factor receptor-bound protein 2. Kind of assay: Inhibition of binding to Growth factor receptor bound protein 2 (Grb2) SH2 domain.
The target in assay [4] is Tyrosine-protein kinase Lck (Homo sapiens, UniProt P06239). Kind of assay: Inhibition of binding to p56 Lck tyrosine kinase SH2 domain.
Sequence of Tyrosine-protein kinase Lck (P06239 whole entry, the tested form may be a part): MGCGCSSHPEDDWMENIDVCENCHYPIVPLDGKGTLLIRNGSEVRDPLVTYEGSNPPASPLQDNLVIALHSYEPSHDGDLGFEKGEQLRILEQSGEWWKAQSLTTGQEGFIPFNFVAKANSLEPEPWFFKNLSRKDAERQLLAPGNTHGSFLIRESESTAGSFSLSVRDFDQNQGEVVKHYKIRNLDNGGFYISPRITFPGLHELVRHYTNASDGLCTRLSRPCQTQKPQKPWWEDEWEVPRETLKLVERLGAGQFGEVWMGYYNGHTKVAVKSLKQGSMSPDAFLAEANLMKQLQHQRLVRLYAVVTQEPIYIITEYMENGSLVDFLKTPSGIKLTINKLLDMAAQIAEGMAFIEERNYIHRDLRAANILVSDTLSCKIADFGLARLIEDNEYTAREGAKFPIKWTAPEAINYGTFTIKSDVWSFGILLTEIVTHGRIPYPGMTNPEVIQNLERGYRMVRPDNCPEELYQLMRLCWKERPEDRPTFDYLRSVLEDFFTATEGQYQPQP
Assay [5] concerns the target T2, Tyrosine-protein phosphatase non-receptor type 11 (Homo sapiens, UniProt Q06124).
T2 sequence (Q06124 whole entry): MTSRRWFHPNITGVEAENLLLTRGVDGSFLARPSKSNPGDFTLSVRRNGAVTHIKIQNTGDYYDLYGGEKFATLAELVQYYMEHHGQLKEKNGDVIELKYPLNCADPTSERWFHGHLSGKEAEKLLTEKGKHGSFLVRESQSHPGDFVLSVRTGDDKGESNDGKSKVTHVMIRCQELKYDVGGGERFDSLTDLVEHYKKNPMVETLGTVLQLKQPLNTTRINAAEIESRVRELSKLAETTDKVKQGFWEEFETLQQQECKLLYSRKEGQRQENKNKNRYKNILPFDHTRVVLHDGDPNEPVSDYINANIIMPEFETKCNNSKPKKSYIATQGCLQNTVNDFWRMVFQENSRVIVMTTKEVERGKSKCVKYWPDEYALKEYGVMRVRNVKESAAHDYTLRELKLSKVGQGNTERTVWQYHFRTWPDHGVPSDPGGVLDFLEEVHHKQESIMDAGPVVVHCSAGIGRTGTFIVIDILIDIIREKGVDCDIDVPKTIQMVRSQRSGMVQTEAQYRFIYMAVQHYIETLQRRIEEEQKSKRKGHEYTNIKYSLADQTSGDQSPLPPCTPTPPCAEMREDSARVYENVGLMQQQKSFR
The assay can be described thus: Inhibition of interaction between the activated tyrosine kinase receptors and Shp2 SH2 domains in the Ras signal transduction pathway.

These results are taken from ChEMBL document CHEMBL1131223, “Potent antagonists of the SH2 domain of Grb2: optimization of the X+1 position of 3-amino-Z-Tyr(PO3H2)-X+1-Asn-NH2” (J Med Chem, 1998).

T1 sequence (P62993 whole entry, the tested form may be a part): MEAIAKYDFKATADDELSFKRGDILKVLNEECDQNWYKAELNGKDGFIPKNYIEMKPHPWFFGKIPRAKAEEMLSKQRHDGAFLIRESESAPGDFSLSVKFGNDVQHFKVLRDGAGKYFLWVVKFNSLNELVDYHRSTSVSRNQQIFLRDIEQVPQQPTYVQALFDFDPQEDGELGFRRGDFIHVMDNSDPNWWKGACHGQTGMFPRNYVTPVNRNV

On to `NC(=O)C[C@H](NC(=O)C1(NC(=O)[C@@H](N)Cc2ccc(OP(=O)(O)O)c(N)c2)CCCCC1)C(N)=O`, for which the IC50 is 970 nM in assay [1]; 1 nM in assay [2]; 4 nM in assay [3]; 6.24 nM in assay [4]; greater than 5 µM in assay [5].
Turning to `NC(=O)C[C@H](NC(=O)C1(NC(=O)[C@H](Cc2ccc(OP(=O)(O)O)cc2)NC(=O)OCc2cccc(N)c2)CCCC1)C(N)=O`, the IC50 in assay [2] amounted to 23 nM.
As to `CC(C)(NC(=O)[C@@H](N)Cc1ccc(OP(=O)(O)O)c(N)c1)C(=O)N[C@@H](CC(N)=O)C(N)=O`, in assay [2], the 50% inhibitory concentration (IC50) was determined as 206 nM.
On the same count and under the same terms, the value for `NC(=O)C[C@H](NC(=O)C1(NC(=O)[C@H](Cc2ccc(OP(=O)(O)O)cc2)NC(=O)OCc2cccc(N)c2)Cc2ccccc2C1)C(N)=O` was 140 nM; that for `NC(=O)C[C@H](NC(=O)C1(NC(=O)[C@H](Cc2ccc(OP(=O)(O)O)cc2)NC(=O)OCc2cccc(N)c2)CC1)C(N)=O` was 124 nM.

Usually IC50 stands for the concentration that inhibits the measured activity by half.
